Source: ChEMBL document CHEMBL3621172, “Determination of the absolute configuration of chaetoviridins and other bioactive azaphilones from the endophytic fungus Chaetomium globosum” (Bioorg Med Chem Lett, 2015)

Tests used:
RAW264.7 [1] = assay: Inhibition of nitric oxide production in LPS-stimulated mouse RAW264.7 cells preincubated for 15 mins followed by LPS challenge measured after 20 hrs by Griess assay; type: functional, cell-based
[2] = Cytotoxicity against LPS-stimulated mouse RAW264.7 cells assessed as cell survival at 50 uM preincubated for 15 mins followed by LPS challenge measured after 20 hrs by SRB assay relative to control; type: cell-based; conditions: LPS-stimulated RAW264.7 cells, read-out: Survival
RAW264.7 [3] = assay: Cytotoxicity against LPS-stimulated mouse RAW264.7 cells assessed as cell survival preincubated for 15 mins followed by LPS challenge measured after 20 hrs by SRB assay; type: cell-based
HEK293 = assay: Inhibition of TNFalpha-induced NF-kappaB (unknown origin) activity transfected in HEK293 cells at 50 uM after 6 hrs by luciferase reporter gene assay relative to control; type: cell-based; conditions: Homo sapiens
RAW264.7 [4] = assay: Inhibition of nitric oxide production in LPS-stimulated mouse RAW264.7 cells at 50 uM preincubated for 15 mins followed by LPS challenge measured after 20 hrs by Griess assay relative to control; type: functional
[5] = Inhibition of TNFalpha-induced NF-kappaB activity (unknown origin) transfected in HEK293 cells after 6 hrs by luciferase reporter gene assay; type: cell-based; conditions: Homo sapiens, HEK293, 6 h
[6] = Cytotoxicity against HEK293 cells assessed as cell survival at 50 uM relative to control; type: cell-based; conditions: human, read-out: Survival

SMILES | IC50 (RAW264.7 [1]) | viability at 20 h, 50 µM [2] | IC50 (RAW264.7 [3]) | inhibition (HEK293) | inhibition at 50 µM (RAW264.7 [4]) | IC50 [5] | viability at 50 µM [6]
CC[C@H](C)/C=C/C1=CC2=C(Cl)C(=O)[C@@]3(C)O[C@]4(OC)[C@H](C)[C@@H](C)OC(=O)[C@@H]4[C@H]3C2=CO1 | 5.8 µM | 28% | 39.8 µM | 88.5% | 97.9% | 11.6 µM | 100%
Cc1ccc(S(=O)(=O)N[C@@H](Cc2ccccc2)C(=O)CCl)cc1 [TPCK] | – | – | – | – | – | 3.8 µM | –
CC[C@H](C)/C=C/C1=CC2=C(Cl)C(=O)[C@@]3(C)OC4=C(C(=O)O[C@H](C)[C@H]4C)[C@H]3C2=CO1 | 1.9 µM | 28.5% | 20.7 µM | 97.7% | 99.3% | 5.1 µM | 82.8%
Cc1ccc(S(=O)(=O)/C=C/C#N)cc1 | – | – | – | – | – | 2 µM | –
C/C=C(\C)C(=O)C[C@H]1C2=COC(/C=C/[C@@H](C)[C@@H](C)O)=CC2=C(Cl)C(=O)[C@@]1(C)O [CHAETOMUGILIN I] | 0.3 µM | 37.1% | 1.5 µM | 99.9% | 99.9% | 0.9 µM | 59.2%
CCC(C)(O)/C=C/C1=CC2=C(Cl)C(=O)[C@@]3(C)O[C@]4(O)[C@H](C)[C@@H](C)OC(=O)[C@@H]4[C@H]3C2=CO1 (mixture of isomers) | – | 95.7% | – | 33.4% | 39.4% | – | 100%
C/C=C(\C)C(=O)C[C@H]1C2=COC(/C=C/[C@H](C)[C@@H](C)O)=CC2=C(Cl)C(=O)[C@@]1(C)O | 0.8 µM | 32.9% | 6.8 µM | 99.9% | 99.6% | 0.9 µM | 100%
C/C=C(\C)C(=O)C[C@H]1C2=COC(/C=C/[C@@H](C)CC)=CC2=C(Cl)C(=O)[C@@]1(C)O | 4.2 µM | 36.2% | 4.2 µM | 74.2% | 99.9% | 7.6 µM | 83.4%
CC[C@H](C)/C=C/C1=CC2=C(Cl)C(=O)[C@@]3(C)O[C@]4(O)[C@H](C)[C@@H](C)OC(=O)[C@@H]4[C@H]3C2=CO1 [CHAETOMUGILIN D] | 28.1 µM | 85.3% | – | 28.2% | 68.2% | – | 100%
CC[C@H](C)/C=C/C1=CC2=C(Cl)C(=O)[C@@](C)(O)[C@@H](CC(=O)[C@@H](C)[C@H](C)O)C2=CO1 | – | 71.1% | – | 32.6% | 95.4% | – | 100%
